pIC50: −log10 of the molar value.

This is an account of results in US20260297070A1, “CYCLIC [COMPOUND LEFT OUT] WRN INHIBITORS” (Nimbus Wadjet, Inc., priority 2023, published 2026).

The assay deals with T1, human Werner helicase (WRN-BV08, Uniprot Q14191, amino acids 517-1235 with L1074F point mutation) (Homo sapiens, UniProt Q14191, L1074F).
T1 construct: Uniprot Q14191, amino acids 517-1235 with L1074F point mutation; TEV-cleavable 8×His (C, cleaved yes); made in house; host or cells: Sf9 insect cells (baculovirus)
T1 sequence (Q14191 with tags, fused parts or gaps L1074F limits assumed): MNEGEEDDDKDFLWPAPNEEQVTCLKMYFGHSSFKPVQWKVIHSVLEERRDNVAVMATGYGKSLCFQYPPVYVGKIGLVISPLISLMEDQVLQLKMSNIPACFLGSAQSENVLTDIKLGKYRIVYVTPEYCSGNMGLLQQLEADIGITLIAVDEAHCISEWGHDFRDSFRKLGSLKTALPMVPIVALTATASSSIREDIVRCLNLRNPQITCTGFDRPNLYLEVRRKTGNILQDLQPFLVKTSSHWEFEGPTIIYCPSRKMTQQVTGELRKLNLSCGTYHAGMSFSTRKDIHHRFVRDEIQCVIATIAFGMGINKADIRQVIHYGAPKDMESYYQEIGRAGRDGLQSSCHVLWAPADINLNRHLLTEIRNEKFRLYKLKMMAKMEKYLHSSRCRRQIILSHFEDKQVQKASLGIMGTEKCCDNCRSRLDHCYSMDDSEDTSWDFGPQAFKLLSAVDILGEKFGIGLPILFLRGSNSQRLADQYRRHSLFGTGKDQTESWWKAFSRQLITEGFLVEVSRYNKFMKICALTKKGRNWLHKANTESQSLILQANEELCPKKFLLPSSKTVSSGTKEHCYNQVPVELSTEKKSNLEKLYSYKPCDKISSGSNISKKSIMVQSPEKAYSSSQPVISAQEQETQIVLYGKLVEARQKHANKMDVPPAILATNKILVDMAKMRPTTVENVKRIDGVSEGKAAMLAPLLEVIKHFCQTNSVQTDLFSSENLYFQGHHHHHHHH
Kind of assay: WRN (BV08) ADP-Glo Assay. Format: biochemical. The settings on record: 0.15 nM WRN, 5 μM ATP, 0.1 nM DNA duplex, 15 min preincubation, 60 min at 25° C., pH 7.5, 1% DMSO; read-out: ADP-Glo_hWRN_IC50. The procedure, abridged:
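0.15 nM WRN (aa 517-1235, L1074F, Sf9-expressed, tag cleaved) preincubated 15 min at 25 °C with compound, then 5 μM ATP and 0.1 nM DNA duplex added for 60 min. Buffer: 20 mM Bicine pH 7.5, 1 mM MgCl2, 10 mM KCl, 1 mM TCEP; 1% DMSO. ADP-Glo luminescence; IC50 by 4-parameter fit.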
Background: In ADP-Glo the light output rises with the ADP produced.
In the case of `COCc1cc(CN(C(=O)Cc2ccc(-n3cccc3C)cc2F)C2C=CS(=O)(=O)C2)ccn1` (stereo not shown) [I-118, N-(1,1-dioxo-2,3-dihydro-1lambda6-thiophen-3-yl)-2-[2-fluoro-4-(2-methyl-1H-pyrrol-1-yl)phenyl]-N-{[2-(methoxymethyl)pyridin-4-yl]methyl}acetamide], the pIC50 is 5.30 to 6.30.

In the case of `COc1cc(CN(C(=O)Cn2cc(-c3ccccc3)cn2)C2C=CS(=O)(=O)C2)ccn1` (stereo not shown) [I-94, N-(1,1-dioxo-2,3-dihydro-1lambda6-thiophen-3-yl)-N-[(2-methoxypyridin-4-yl)methyl]-2-(4-phenyl-1H-pyrazol-1-yl)acetamide], the pIC50 is 5.30 to 6.30.

With `O=C(Cc1cc(-c2ccccc2)n[nH]1)N(Cc1ccncc1)C1C=CS(=O)(=O)C1` (stereo not shown) [I-289, N-(1,1-dioxo-2,3-dihydro-1lambda6-thiophen-3-yl)-2-(3-phenyl-1H-pyrazol-5-yl)-N-[(pyridin-4-yl)methyl]acetamide], the pIC50 was 4.30 to 5.00.

`CN(C)C(=O)C(C(=O)N(Cc1ccnc(C(C)(C)O)c1)C1C=CS(=O)(=O)C1)c1ccc(-c2ccc(F)cc2)cc1F` (single isomer, unassigned) [I-237, (2R**)-2-{3,4′-difluoro-[1,1′-biphenyl]-4-yl}-N-[(3R*)-1,1-dioxo-2,3-dihydro-1lambda6-thiophen-3-yl]-N-{[2-(2-hydroxypropan-2-yl)pyridin-4-yl]methyl}-N′,N′-dimethylpropanediamide]: the pIC50 was 5.00 to 5.30.

Turning to `COc1cc(CN(C(=O)Cn2cc(-c3cccc(F)c3)cn2)C2C=CS(=O)(=O)C2)ccn1` (stereo not shown) [I-54, N-(1,1-dioxo-2,3-dihydro-1lambda6-thiophen-3-yl)-2-[4-(3-fluorophenyl)-1H-pyrazol-1-yl]-N-[(2-methoxypyridin-4-yl)methyl]acetamide], the pIC50 is above 6.30.

In the case of `O=C(CCc1ccc(-n2cccc2)cc1)N(Cc1ccncc1)C1C=CS(=O)(=O)C1` (stereo not shown) [I-519, N-(1,1-dioxo-2,3-dihydro-1lambda6-thiophen-3-yl)-N-[(pyridin-4-yl)methyl]-3-[4-(1H-pyrrol-1-yl)phenyl]propanamide], the pIC50 was below 4.30.

Regarding `O=C(C1CCc2cc(Cl)ccc2O1)N(Cc1ccncc1)C1C=CS(=O)(=O)C1` (stereo not shown) [I-653, 6-chloro-N-(1,1-dioxo-2,3-dihydro-1lambda6-thiophen-3-yl)-N-[(pyridin-4-yl)methyl]-3,4-dihydro-2H-1-benzopyran-2-carboxamide], the pIC50 is below 4.30.

Consider `O=C(Cc1ccc(-c2nccs2)cc1)N(Cc1ccncc1)C1C=CS(=O)(=O)C1` (stereo not shown) [I-466, N-(1,1-dioxo-2,3-dihydro-1lambda6-thiophen-3-yl)-N-[(pyridin-4-yl)methyl]-2-[4-(1,3-thiazol-2-yl)phenyl]acetamide], for which the pIC50 was below 4.30.

Consider `CC(C)(O)c1cc(CN(C(=O)Cc2ccc(-n3cccc3)cc2)C2C=CS(=O)(=O)C2)ccn1` (stereo not shown) [I-152, N-(1,1-dioxo-2,3-dihydro-1lambda6-thiophen-3-yl)-N-{[2-(2-hydroxypropan-2-yl)pyridin-4-yl]methyl}-2-[4-(1H-pyrrol-1-yl)phenyl]acetamide], for which the pIC50 was 5.30 to 6.30.

As for `Cc1scnc1-c1ccc(CC(=O)N(Cc2ccncc2)C2C=CS(=O)(=O)C2)c(F)c1` (stereo not shown) [I-320, N-(1,1-dioxo-2,3-dihydro-1lambda6-thiophen-3-yl)-2-[2-fluoro-4-(5-methyl-1,3-thiazol-4-yl)phenyl]-N-[(pyridin-4-yl)methyl]acetamide], the pIC50 is 4.30 to 5.00.

As for `CN(C)C(=O)C(C(=O)N(Cc1ccncc1)C1C=CS(=O)(=O)C1)c1ccc(-c2ccc(F)cc2)cc1` (stereo not shown) [I-104, N′-(1,1-dioxo-2,3-dihydro-1lambda6-thiophen-3-yl)-2-{4′-fluoro-[1,1′-biphenyl]-4-yl}-N,N-dimethyl-N′-[(pyridin-4-yl)methyl]propanediamide], the pIC50 is 5.30 to 6.30.

For `COc1cc(CN(C(=O)Cc2ccc(-n3c(C)ccc3C)cc2F)C2C=CS(=O)(=O)C2)ccn1` (stereo not shown) [I-171, 2-[4-(2,5-dimethyl-1H-pyrrol-1-yl)-2-fluorophenyl]-N-(1,1-dioxo-2,3-dihydro-1lambda6-thiophen-3-yl)-N-[(2-methoxypyridin-4-yl)methyl]acetamide], the pIC50 is 5.30 to 6.30.

Take `O=C(CCc1c[nH]c2cc(Cl)ccc12)N(Cc1ccncc1)C1C=CS(=O)(=O)C1` (stereo not shown) [I-306, 3-(6-chloro-1H-indol-3-yl)-N-(1,1-dioxo-2,3-dihydro-1lambda6-thiophen-3-yl)-N-[(pyridin-4-yl)methyl]propanamide]: the pIC50 was 4.30 to 5.00.

Turning to `O=C(Cc1ccc(-n2cccc2)cc1)N(Cc1noc(C2CC2)n1)C1C=CS(=O)(=O)C1` (stereo not shown) [I-342, N-[(5-cyclopropyl-1,2,4-oxadiazol-3-yl)methyl]-N-(1,1-dioxo-2,3-dihydro-1lambda6-thiophen-3-yl)-2-[4-(1H-pyrrol-1-yl)phenyl]acetamide], the pIC50 was 4.30 to 5.00.

Turning to `COC(C(=O)N(Cc1ccnc(C(C)(C)O)c1)[C@@H]1C=CS(=O)(=O)C1)c1ccc(-c2ccc(F)c(F)c2)cc1F` (single isomer, unassigned) [I-2], the pIC50 is above 6.30.

On to `CCOc1cc(CN(C(=O)Cc2ccc(-c3ccc(F)cc3)cc2F)C2C=CS(=O)(=O)C2)ccn1` (stereo not shown) [I-84, 2-{3,4′-difluoro-[1,1′-biphenyl]-4-yl}-N-(1,1-dioxo-2,3-dihydro-1lambda6-thiophen-3-yl)-N-[(2-ethoxypyridin-4-yl)methyl]acetamide], for which the pIC50 was 5.30 to 6.30.

As for `O=C(Cc1ccc(-c2ccccc2)cn1)N(Cc1ccccc1)C1C=CS(=O)(=O)C1` (stereo not shown) [I-341, N-benzyl-N-(1,1-dioxo-2,3-dihydro-1lambda6-thiophen-3-yl)-2-(5-phenylpyridin-2-yl)acetamide], the pIC50 is 4.30 to 5.00.

For `O=C(Cc1ccc(-n2cccc2)cc1)N(Cc1ccccc1N1CCC(O)C1)C1C=CS(=O)(=O)C1` (stereo not shown) [I-372, N-(1,1-dioxo-2,3-dihydro-1lambda6-thiophen-3-yl)-N-{[2-(3-hydroxypyrrolidin-1-yl)phenyl]methyl}-2-[4-(1H-pyrrol-1-yl)phenyl]acetamide], the pIC50 is below 4.30.

On to `CC(O)(c1cc(CN(C(=O)Cn2cc(-c3cc(F)c(F)c(F)c3)cn2)C2C=CS(=O)(=O)C2)ccn1)C(F)F` (stereo not shown) [I-827, N-{[2-(1,1-difluoro-2-hydroxypropan-2-yl)pyridin-4-yl]methyl}-N-(1,1-dioxo-2,3-dihydro-1lambda6-thiophen-3-yl)-2-[4-(3,4,5-trifluorophenyl)-1H-pyrazol-1-yl]acetamide], for which the pIC50 is above 6.30.

`O=C(Cc1ccc(-n2cccc2)cc1)N(Cc1nc(C2CC2)cs1)C1C=CS(=O)(=O)C1` (stereo not shown) [I-111, N-[(4-cyclopropyl-1,3-thiazol-2-yl)methyl]-N-(1,1-dioxo-2,3-dihydro-1lambda6-thiophen-3-yl)-2-[4-(1H-pyrrol-1-yl)phenyl]acetamide]: the pIC50 is 5.30 to 6.30.

As to `Cc1cnn(CC(=O)N(Cc2ccncc2)C2C=CS(=O)(=O)C2)c1` (stereo not shown) [I-436, N-(1,1-dioxo-2,3-dihydro-1lambda6-thiophen-3-yl)-2-(4-methyl-1H-pyrazol-1-yl)-N-[(pyridin-4-yl)methyl]acetamide], the pIC50 was below 4.30.

Consider `COc1cc(CN(C(=O)Cc2ccc(-n3cccc3C)cc2F)C2C=CS(=O)(=O)C2)ccn1` (single isomer, unassigned) [I-329], for which the pIC50 was 4.30 to 5.00.
